Assay results taken from patent publication US6806293B1, “Use of pheromone compounds having MAP kinase modulating activity” (Darley Pharmaceuticals LTD, priority 2001, dated 2004).

Experiments:
MAP kinase [1] = assay: MAP kinase activation in Rat1 cells compared to EGF and TPA (Example 3, western blot, densitometry); format: cell-based, rat; conditions: 15 minutes; for Activity (% of EGF-activation), Conc. 1 / Activity (% of TPA-activation), Conc. 1: compound 1 × 10^-4 M; for Activity (% of EGF-activation), Conc. 1 / Activity (% of EGF-activation), Conc. 2: relative to EGF 50 ng/ml; for Activity (% of TPA-activation), Conc. 1 / Activity (% of TPA-activation), Conc. 2: relative to TPA 100 nM; for Activity (% of EGF-activation), Conc. 2 / Activity (% of TPA-activation), Conc. 2: compound 1 × 10^-5 M
Experimental: Rat1 cells were grown in 6 cm cell culture dishes in a tissue culture incubator at 37° C. in an atmosphere containing 5% carbon dioxide. The Rat1 cells were serum-starved for 16 hours. Three groups of the Rat1 cells were then treated for 15 minutes with either epidermal growth factor (EGF) (50 ng/ml), 12-O-tetradecanoylphorbol-13-acetate (TPA) (100nM), or with one of the pheromone compounds at one of two concentrations identified in Table 2 below. EGF and TPA are compounds which are known to activate MAP kinase and therefore serve as a basis of comparing the relative activity of the pheromone compounds. The cells were then washed with phosphate buffered saline (PBS) and lysed with radioimmunoprotein assay (RIPA) buffer. The proteins were then separated by sodium dodecyl sulfate-polyacrylamide gel electrophoresis (SDS-PAGE), transferred onto a nitrocellulose membrane and probed with anti-MAPK antibodies to produce a blot. The MAP kinase activity for the EGF-treated cells, the TPA-treated cells and the pheromone compound-treated cells, was analyzed and calculated using densitometric analysis. The results shown in Table 2 are presented as percent of EGF-stimulated active MAP kinase levels or TPA-stimulated active MAP kinase levels, respectively.

MAP kinase [2] = assay: Screening method for pheromone compounds having MAP kinase modulating activity in Rat1 cells (Example 1); format: cell-based, rat; conditions: observed on screening in accordance with the described methods
Experimental: In a preferred screening method, as set forth in Example 1 herein, pheromone compounds with MAP kinase modulating activity are identified using Rat1 cells grown in cell culture dishes. Samples of the pheromone compound are added to respective cell culture dishes containing the Rat1 cells and incubated. A control group is established by treating a separate group of cell culture dishes containing Rat1 cells with the same solutions absent the pheromone compound. After incubation, the Rat1 cells are stimulated with epidermal growth factor to stimulate MAP kinase activation in the Rat1 cells. Upon completion of the incubation period, the Rat1 cells in each of the culture dishes are separately processed to obtain the corresponding cell extract containing proteins indicative of active kinase. The proteins are then separated using known electrophoresis techniques and prepared as a blot for the detection and measurement of active MAP kinase. The resulting blot is analyzed using densitometric techniques to measure the corresponding activity of the tested pheromone compound.
Rat1 cells were grown in 6 cm cell culture dishes in a tissue culture incubator at 37° C. in an atmosphere containing 5% carbon dioxide. The cells were serum-starved for 16 hours. […] A control group was established by adding to the remaining cell culture dishes the same solution absent the pheromone compound. After the 15 minute period, the Rat1 cells were stimulated with epidermal growth factor (EGF) (50 ng/ml) for about 15 minutes for one group and 30 minutes for a second group.
The Rat1 cells were then treated to remove the corresponding incubation medium and then the cells were rinsed twice each with 5 ml of cold phosphate buffered saline (PBS) and once with 5 ml of cold homogenizing buffer (Buffer H) containing 50 mM of β-glycerophosphate, (pH 7.3), 1.5 mM of ethylenebis(oxyethylenenitrilo)tetraacetic acid (EGTA), 1 mM of ethylenediaminetetraacetic acid (EDTA), 1 mM of dithiothreitol (DTT), 0.1 mM sodium orthovanadate, 1 mM benzamidine, 10 μg/ml of aprotinin, 10 μg/ml of leupeptin, and 2 μg/ml of pepstatin (2 μg/ml)+1% Triton-X-100.
The cells were harvested and lysed with 350 μl of cold Buffer H. Alternatively, the cells may be harvested and lysed with radioimmunoprotein assay buffer (RIPA buffer). Each extract was then centrifuged at 15,000×g for 15 minutes at 4° C. The resulting supernatants contained the protein extracts to be examined and were transferred to fresh, pre-cooled test tubes and kept on ice.
The proteins were then separated by sodium dodecyl sulfate-polyacrylamide gel electrophoresis (SDS-PAGE) and transferred, by western blotting, onto a nitrocellulose membrane.
The blot produced above was blocked with 2% bovine serum albumin (BSA) in Tris-buffered saline/Tween-20 (TBST) for 1 hour. The blot was then incubated with a monoclonal anti-active MAP kinase antibody obtained from Sigma, and diluted according to the manufacturer recommendations. The blot was incubated overnight at 4° C. Alternatively, the blot may also be incubated for about 30 minutes at 37° C., or from one to two hours at room temperature.
The treated blot was placed in a flat container and washed at least 3 times for 15 minutes each with TBST buffer at room temperature. The blot was then incubated with alkaline phosphatase-conjugated goat anti-mouse IgG obtained from Jackson Laboratories, diluted according to the manufacturer recommendations in TBST buffer for 45 minutes at room temperature. The blot was then subjected to a second washing, repeated 3 times, for 10 minutes each with TBST. An alkaline phosphatase (AP) detection technique was utilized to detect and measure the presence of active MAP kinase. Enhanced MAP kinase activity as compared to control is evidence that the compound is a MAP kinase activator. Lowered MAP kinase activity as compared to control is evidence that the compound is a MAP kinase inhibitor. […]

CCCCCC(C)=O [2-Heptanone]
Activity (% of EGF-activation), Conc. 1 (MAP kinase [1]): 5%
Activity (% of TPA-activation), Conc. 1 (MAP kinase [1]): 14%
Activity (% of EGF-activation), Conc. 2 (MAP kinase [1]): 7%
Activity (% of TPA-activation), Conc. 2 (MAP kinase [1]): 50%
mitogen-activating protein kinase modulation activity (activator or inhibitor) (MAP kinase [2]): activators

C=CC(C)(C)O [2-methyl-3-butene-2-ol]
Activity (% of EGF-activation), Conc. 1 (MAP kinase [1]): 5%
Activity (% of TPA-activation), Conc. 1 (MAP kinase [1]): 35%
mitogen-activating protein kinase modulation activity (activator or inhibitor) (MAP kinase [2]): activators

CCC(C)CCCC/C=C\CCCCCCC=O (stereo not drawn) [14-methyl-Cis-8-Hexadecenal]
Activity (% of EGF-activation), Conc. 1 (MAP kinase [1]): 10%
Activity (% of TPA-activation), Conc. 1 (MAP kinase [1]): 75%
Activity (% of EGF-activation), Conc. 2 (MAP kinase [1]): 3%
Activity (% of TPA-activation), Conc. 2 (MAP kinase [1]): 15%
mitogen-activating protein kinase modulation activity (activator or inhibitor) (MAP kinase [2]): activators

CCCCCCCCCC/C=C\CCCCC(C)C [Cis-2-methyl-7-Octadecene]
Activity (% of EGF-activation), Conc. 1 (MAP kinase [1]): 8%
Activity (% of TPA-activation), Conc. 1 (MAP kinase [1]): 60%
Activity (% of EGF-activation), Conc. 2 (MAP kinase [1]): 8%
Activity (% of TPA-activation), Conc. 2 (MAP kinase [1]): 45%
mitogen-activating protein kinase modulation activity (activator or inhibitor) (MAP kinase [2]): activators

CCCCCCCC/C=C\CCCOC(C)=O [Cis-4-Tridecen-1-yl-acetate]
Activity (% of EGF-activation), Conc. 1 (MAP kinase [1]): 3%
Activity (% of TPA-activation), Conc. 1 (MAP kinase [1]): 7%
Activity (% of EGF-activation), Conc. 2 (MAP kinase [1]): 5%
Activity (% of TPA-activation), Conc. 2 (MAP kinase [1]): 30%
mitogen-activating protein kinase modulation activity (activator or inhibitor) (MAP kinase [2]): activators

CCCC/C=C\CCCCCCOC(C)=O [Cis-7-Dodecenyl-acetate]
Activity (% of EGF-activation), Conc. 1 (MAP kinase [1]): 7%
Activity (% of TPA-activation), Conc. 1 (MAP kinase [1]): 20%
Activity (% of EGF-activation), Conc. 2 (MAP kinase [1]): 8%
Activity (% of TPA-activation), Conc. 2 (MAP kinase [1]): 17%
mitogen-activating protein kinase modulation activity (activator or inhibitor) (MAP kinase [2]): activators

CCCCCC/C=C\CCCCCC=O [Cis-7-Tetradecenal]
Activity (% of EGF-activation), Conc. 1 (MAP kinase [1]): 7%
Activity (% of TPA-activation), Conc. 1 (MAP kinase [1]): 20%
Activity (% of EGF-activation), Conc. 2 (MAP kinase [1]): 5%
Activity (% of TPA-activation), Conc. 2 (MAP kinase [1]): 10%
mitogen-activating protein kinase modulation activity (activator or inhibitor) (MAP kinase [2]): activators

CCCCCC/C=C\CCCCCCO [Cis-7-Tetradecenol]
Activity (% of EGF-activation), Conc. 1 (MAP kinase [1]): 9%
Activity (% of TPA-activation), Conc. 1 (MAP kinase [1]): 30%
Activity (% of EGF-activation), Conc. 2 (MAP kinase [1]): 9%
Activity (% of TPA-activation), Conc. 2 (MAP kinase [1]): 25%
mitogen-activating protein kinase modulation activity (activator or inhibitor) (MAP kinase [2]): activators

CCCCCC/C=C\CCCCCCOC(C)=O [Cis-7-Tetradecenyl-acetate]
Activity (% of EGF-activation), Conc. 1 (MAP kinase [1]): 8%
Activity (% of TPA-activation), Conc. 1 (MAP kinase [1]): 21%
Activity (% of EGF-activation), Conc. 2 (MAP kinase [1]): 10%
Activity (% of TPA-activation), Conc. 2 (MAP kinase [1]): 80%
mitogen-activating protein kinase modulation activity (activator or inhibitor) (MAP kinase [2]): activators

CCCCC/C=C\CCCCCCO [Cis-7-Tridecenol]
Activity (% of EGF-activation), Conc. 1 (MAP kinase [1]): 12%
Activity (% of TPA-activation), Conc. 1 (MAP kinase [1]): 80%
Activity (% of EGF-activation), Conc. 2 (MAP kinase [1]): 9%
Activity (% of TPA-activation), Conc. 2 (MAP kinase [1]): 60%
mitogen-activating protein kinase modulation activity (activator or inhibitor) (MAP kinase [2]): activators

CCCCCCCC/C=C\CCCCCCCCCCC [Cis-9-Heneicosene]
Activity (% of EGF-activation), Conc. 2 (MAP kinase [1]): 3%
Activity (% of TPA-activation), Conc. 2 (MAP kinase [1]): 22%
mitogen-activating protein kinase modulation activity (activator or inhibitor) (MAP kinase [2]): activators

CCCCC/C=C\CCCCCCCCO [Cis-9-Pentadecenol]
Activity (% of EGF-activation), Conc. 1 (MAP kinase [1]): 14%
Activity (% of TPA-activation), Conc. 1 (MAP kinase [1]): 95%
Activity (% of EGF-activation), Conc. 2 (MAP kinase [1]): 6%
Activity (% of TPA-activation), Conc. 2 (MAP kinase [1]): 30%
mitogen-activating protein kinase modulation activity (activator or inhibitor) (MAP kinase [2]): activators

CCCC/C=C\CCCCCCCCO [Cis-9-Tetradecenol]
Activity (% of EGF-activation), Conc. 1 (MAP kinase [1]): 15%
Activity (% of TPA-activation), Conc. 1 (MAP kinase [1]): 105%
Activity (% of EGF-activation), Conc. 2 (MAP kinase [1]): 8%
Activity (% of TPA-activation), Conc. 2 (MAP kinase [1]): 35%
mitogen-activating protein kinase modulation activity (activator or inhibitor) (MAP kinase [2]): activators

CCCC/C=C\CCCCCCCCOC=O [Cis-9-Tetradecenyl-formate]
Activity (% of EGF-activation), Conc. 1 (MAP kinase [1]): 12%
Activity (% of TPA-activation), Conc. 1 (MAP kinase [1]): 90%
Activity (% of EGF-activation), Conc. 2 (MAP kinase [1]): 12%
Activity (% of TPA-activation), Conc. 2 (MAP kinase [1]): 55%
mitogen-activating protein kinase modulation activity (activator or inhibitor) (MAP kinase [2]): activators

CCCCC/C=C\CCCC(=O)CCCCCCCCCC [cis-6-heneicosene-11-one]
mitogen-activating protein kinase modulation activity (activator or inhibitor) (MAP kinase [2]): activators
